{"source": "patent US20240156847A1", "about": "(priority 2022, published 2024)", "key": {"PRV-GFP strain": {"tested_on": "PRV-GFP strain", "type": "cell-based, Pseudorabies virus"}, "[1]": {"tested_on": "PRV gE protein (PRV-HeNLH/2017 strain)", "type": "cell-based, Pseudorabies virus"}, "PRV-HeNLH/2017 strain": {"tested_on": "PRV-HeNLH/2017 strain", "type": "cell-based, Pseudorabies virus"}}, "data": [{"compound": "O=C(O)[C@H]1O[C@@H](Oc2cc3oc(-c4ccccc4)cc(=O)c3c(O)c2O)[C@H](O)[C@@H](O)[C@@H]1O", "note": "[baicalin]", "values": [{"measurement": "inhibition of proliferation of PRV-GFP strain (green fluorescence)", "setting": "PRV-GFP strain", "value": "inhibited the proliferation of PRV-GFP strains at the using concentrations, and the inhibitory effect was more significant at 62.5 and 125 μM"}, {"measurement": "inhibition of expression of PRV gE protein", "setting": "[1]", "value": "significantly inhibited the expression of PRV gE protein"}, {"measurement": "inhibition of PRV proliferation (virus titer, TCID50)", "setting": "PRV-HeNLH/2017 strain", "value": "significantly inhibited the proliferation of PRV on PK-15 cells"}, {"measurement": "effect on cell viability (cytotoxicity)", "setting": "PK-15 cells", "value": "no significant effect on cell viability"}]}]}
